One may read the Kd as the concentration at which binding is half-saturated. Higher therefore signals a looser complex. In general, inhibition refers to the percentage by which the read-out fell short of the control.

Each structure is given as a SMILES string. Read-outs that look alike come from different tables or passages of the source. Bounds are passed on as bounds.

The target in one assay is T1, BRDT (Homo sapiens, UniProt Q58F21).
T1 construct: read out by qPCR of the phage DNA
The assay is described as follows: Bromodomain binding assay: BRDT. On the procedure: (§1) T7 phage strains displaying bromodomains were grown in parallel in 24-well blocks in an E. coli host derived from the BL21 strain. E. coli were grown to log-phase and infected with T7 phage from a frozen stock (multiplicity of infection=0.4) and incubated with shaking at 32° C. until lysis (90-150 minutes). The lysates were centrifuged (5,000×g) and filtered (0.2 μm) to remove cell debris. […] The liganded beads were blocked with excess biotin and washed with blocking buffer (SeaBlock (Pierce), 1% BSA, 0.05 Tween 20, 1 mM DTT) to remove unbound ligand and to reduce non-specific phage binding. […] Test compounds (T62 and 46) were prepared as 1000× stocks in 100% DMSO and subsequently diluted 1:10 in monoethylene glycol (MEG) to create stocks at 100× the screening concentration (resulting stock solution is 10% DMSO/90% MEG). The compounds were then diluted directly into the assays such that the final concentration of DMSO and MEG were 0.1% and 0.9%, respectively. All reactions were performed in polystyrene 96-well plates in a final volume of 0.135 ml. […] The bromodomain concentration in the eluates was measured by qPCR. Compounds were assayed for binding activity against a panel of 40 bromodomain-containing proteins.

The target of a further assay is T2, BRD1 (Homo sapiens, UniProt O95696).
T2 construct: T7 phage strains displaying bromodomains were grown in parallel; made in house; host or cells: E. coli host derived from BL21, infected with T7 phage
T2 sequence (O95696 562-666 limits assumed, species assumed): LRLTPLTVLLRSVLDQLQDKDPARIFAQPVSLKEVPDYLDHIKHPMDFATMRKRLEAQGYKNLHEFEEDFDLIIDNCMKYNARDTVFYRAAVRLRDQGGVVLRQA
The assay can be described thus: Bromodomain binding assay: BRD1. How it is done: as §1

A further assay has as its target T3, CECR2 (Homo sapiens, UniProt Q9BXF3).
T3 construct: T7 phage strains displaying bromodomains were grown in parallel; made in house; host or cells: E. coli host derived from BL21, infected with T7 phage
The assay can be described thus: Bromodomain binding assay: CECR2. How it is done: as §1

For a further assay, the target named is T4, PBRM1 (Homo sapiens, UniProt Q86U86).
T4 construct: read out by qPCR of the phage DNA
T4 sequence (Q86U86 whole entry): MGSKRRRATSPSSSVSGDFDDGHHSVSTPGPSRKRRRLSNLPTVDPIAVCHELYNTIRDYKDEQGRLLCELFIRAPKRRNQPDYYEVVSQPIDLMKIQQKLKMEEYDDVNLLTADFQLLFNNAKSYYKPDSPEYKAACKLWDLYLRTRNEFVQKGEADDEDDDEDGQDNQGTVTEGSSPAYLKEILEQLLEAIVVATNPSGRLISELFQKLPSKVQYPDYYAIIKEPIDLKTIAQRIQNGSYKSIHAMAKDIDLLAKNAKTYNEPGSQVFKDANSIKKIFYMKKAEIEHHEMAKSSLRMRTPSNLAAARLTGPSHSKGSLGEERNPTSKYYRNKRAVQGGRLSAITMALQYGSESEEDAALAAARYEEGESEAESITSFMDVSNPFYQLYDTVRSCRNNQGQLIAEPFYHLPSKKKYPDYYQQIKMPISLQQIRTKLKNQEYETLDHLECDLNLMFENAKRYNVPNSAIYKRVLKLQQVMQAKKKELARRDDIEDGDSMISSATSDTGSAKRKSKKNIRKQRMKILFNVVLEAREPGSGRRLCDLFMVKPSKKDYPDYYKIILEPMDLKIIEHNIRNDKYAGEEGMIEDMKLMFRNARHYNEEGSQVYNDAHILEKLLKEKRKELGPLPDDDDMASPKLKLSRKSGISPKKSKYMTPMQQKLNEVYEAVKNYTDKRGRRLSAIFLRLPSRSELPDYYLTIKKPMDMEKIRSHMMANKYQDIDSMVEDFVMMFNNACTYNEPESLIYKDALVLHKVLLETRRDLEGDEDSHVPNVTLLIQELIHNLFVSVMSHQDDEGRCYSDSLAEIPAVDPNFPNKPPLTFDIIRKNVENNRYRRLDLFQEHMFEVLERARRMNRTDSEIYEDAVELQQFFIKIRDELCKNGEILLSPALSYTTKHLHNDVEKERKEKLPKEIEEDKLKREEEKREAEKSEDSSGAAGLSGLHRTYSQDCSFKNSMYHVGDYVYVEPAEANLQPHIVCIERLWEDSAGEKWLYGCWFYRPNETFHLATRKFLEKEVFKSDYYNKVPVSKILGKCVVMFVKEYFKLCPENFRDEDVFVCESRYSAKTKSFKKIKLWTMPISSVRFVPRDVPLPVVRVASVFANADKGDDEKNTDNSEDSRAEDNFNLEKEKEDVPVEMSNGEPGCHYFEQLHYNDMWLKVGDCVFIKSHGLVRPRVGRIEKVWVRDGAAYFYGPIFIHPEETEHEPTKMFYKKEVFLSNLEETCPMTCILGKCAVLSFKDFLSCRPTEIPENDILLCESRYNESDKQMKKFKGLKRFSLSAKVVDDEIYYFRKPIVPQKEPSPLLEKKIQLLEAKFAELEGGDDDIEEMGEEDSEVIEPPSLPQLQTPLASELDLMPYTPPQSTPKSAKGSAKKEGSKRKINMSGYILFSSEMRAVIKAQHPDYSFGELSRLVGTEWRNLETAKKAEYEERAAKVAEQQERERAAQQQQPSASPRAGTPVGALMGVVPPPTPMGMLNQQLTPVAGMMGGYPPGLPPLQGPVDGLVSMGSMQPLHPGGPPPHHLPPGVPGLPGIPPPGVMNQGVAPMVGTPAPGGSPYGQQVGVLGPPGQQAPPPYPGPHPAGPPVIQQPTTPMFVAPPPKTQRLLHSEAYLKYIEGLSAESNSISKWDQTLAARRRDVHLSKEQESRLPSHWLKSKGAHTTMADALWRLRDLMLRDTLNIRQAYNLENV
The assay is described as follows: Bromodomain binding assay: PBRM1. On the procedure: as §1

The next assay has as its target T5, WDR9 (Homo sapiens, UniProt Q9NSI6).
T5 construct: made in house; host or cells: E. coli host derived from the BL21 strain (T7 phage lysate)
The assay can be described thus: Bromodomain binding assay: WDR9. On the procedure:
as §1

Assay [1] has as its system primary human corneal epithelial cells. The assay is described as follows: Cytokine response in primary human corneal epithelial cells stimulated with IFNγ, IL-1β or IL-17A. The format is cell-based. The note with it: Corneal epithelial cell, 24 h, 5 μM compound. How it is done:
Primary corneal epithelial cells were obtained from Life Technologies (Carlsbad, Calif.) and maintained in Keratinocyte-SFM media supplemented with EGF and bovine pituitary extract (Life Technologies). Cells were seeded at 1e5 cells/ml and incubated at 37° C. in a humidified atmosphere at 5% CO2 overnight to adhere. Cells were supplement-starved overnight in unsupplemented K-SFM media containing 0.5% BSA then treated with compound for 1 h at 37° C. in a humidified atmosphere at 5% CO2. DMSO at a final concentration of 0.1% served as the non-inhibited control. Cells were stimulated with 20 ng/ml of human recombinant IFNγ (R & D Systems, Minneapolis, Minn.), IL-1β (R & D Systems), or IL-17A (eBioscience, San Diego, Calif.) for 24 h. Supernatant was then collected and analyzed for cytokine concentrations using the Bio-Plex Pro Human Cytokine 17-Plex Panel (Bio-Rad Laboratories, Hercules, Calif.) according to the manufacturer's instructions. Magnetic beads were measured on the Bio-Plex MAGPIX multiplex reader instrument using the accompanying xPONENT 4.2 acquisition software (Bio-Rad Laboratories). Data were analyzed via the Bio-Plex Manager software v6.1 (Bio-Rad Laboratories).
Percent inhibition of cytokines in culture supernatant during 5 μM compound treatment of primary corneal epithelial cells. Shown below are data from a representative experiment.

The mark [2] stands for this setting: +20 ng/ml IFNγ, read-out: Percent inhibition of cytokine relative to DMSO controls, G-CSF.
[3] abbreviates: +20 ng/ml IFNγ, read-out: Percent inhibition of cytokine relative to DMSO controls, GM-CSF.
The mark [4] stands for this setting: +20 ng/ml IFNγ, read-out: Percent inhibition of cytokine relative to DMSO controls, IL-6.
Setting [5] is: +20 ng/ml IFNγ, read-out: Percent inhibition of cytokine relative to DMSO controls, MCP-1.
Setting [6] is: +20 ng/ml IL-1β, read-out: Percent inhibition of cytokine relative to DMSO controls, G-CSF.
Where [7] appears, read: +20 ng/ml IL-1β, read-out: Percent inhibition of cytokine relative to DMSO controls, GM-CSF.
[8] abbreviates: +20 ng/ml IL-1β, read-out: Percent inhibition of cytokine relative to DMSO controls, IL-6.
The mark [9] stands for this setting: +20 ng/ml IL-1β, read-out: Percent inhibition of cytokine relative to DMSO controls, MCP-1.
Setting [10] is: +20 ng/ml IL-17A, read-out: Percent inhibition of cytokine relative to DMSO controls, G-CSF.
[11] abbreviates: +20 ng/ml IL-17A, read-out: Percent inhibition of cytokine relative to DMSO controls, GM-CSF.
Where [12] appears, read: +20 ng/ml IL-17A, read-out: Percent inhibition of cytokine relative to DMSO controls, IL-6.
Setting [13] is: +20 ng/ml IL-17A, read-out: Percent inhibition of cytokine relative to DMSO controls, MCP-1.

T5 sequence (Q9NSI6 1313-1418 limits assumed): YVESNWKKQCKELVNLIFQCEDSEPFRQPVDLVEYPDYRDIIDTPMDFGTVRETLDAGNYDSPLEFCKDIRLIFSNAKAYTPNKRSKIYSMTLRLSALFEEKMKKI
T3 sequence (Q9BXF3 434-538 limits assumed, species assumed): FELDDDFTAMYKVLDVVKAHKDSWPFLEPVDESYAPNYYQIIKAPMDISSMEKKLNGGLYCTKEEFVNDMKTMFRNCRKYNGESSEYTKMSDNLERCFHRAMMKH

For the compound `CCOc1cc(C(=O)N2CCC(N3CCCC3)CC2)ccc1Nc1cc2c(cn1)N(C)C(=O)c1ccccc1N2C` [Compound 46, 3-(2-Ethoxy-4-(4-(pyrrolidin-1-yl)piperidine-1-carbonyl)phenylamino)-5,11-dimethyl-5H-benzo[e]pyrido[3,4-b][1,4]diazepin-10(11H)-one], the Kd on BRDT was 169 nM; at BRD1, over 20 µM; on CECR2, over 20 µM; on PBRM1, over 20 µM; at WDR9, over 20 µM. In addition, the inhibition at 5 µM in assay [1] (setting [2]) stood at 42.1%; in assay [1] (setting [3]), 30.4%; in assay [1] (setting [4]), 84.4%; in assay [1] (setting [5]), 93.4%; in assay [1] (setting [6]) it was 86.3%; in assay [1] (setting [7]) it was 97%. Moreover, the inhibition at 5 µM came to 92.2% in assay [1] (setting [8]); 52.1% in assay [1] (setting [9]); 90.3% in assay [1] (setting [10]); 92.5% in assay [1] (setting [11]); 94.7% in assay [1] (setting [12]); 42.7% in assay [1] (setting [13]).
With `CCOc1cc(C(=O)N[C@H]2CC[C@H](O)CC2)ccc1Nc1cc2c(cn1)N(C)C(=O)c1ccccc1N2C` [Compound T62], the Kd on BRDT was 397 nM; on BRD1 it was over 20 µM; at CECR2, over 20 µM; on PBRM1, over 20 µM; at WDR9 it was over 20 µM. Besides, the inhibition at 5 µM came out at 28% in assay [1] (setting [2]); 25.4% in assay [1] (setting [3]); 67.9% in assay [1] (setting [4]); 89.5% in assay [1] (setting [5]); 89.3% in assay [1] (setting [6]); 97.1% in assay [1] (setting [7]). Moreover, the inhibition at 5 µM in assay [1] (setting [8]) was found to be 88.7%; in assay [1] (setting [9]), 58%; in assay [1] (setting [10]), 86.4%; in assay [1] (setting [11]) it was 89.7%; in assay [1] (setting [12]), 89.6%; in assay [1] (setting [13]) it was 36%.

Values taken from US20170008888A1 (KYORIN PHARMACEUTICAL CO., LTD., priority 2014, published 2017).
